Earlier results in patent US20140243418A1, “RASAGILINE FOR PARKINSON'S DISEASE MODIFICATION” (Teva Pharmaceutical Industries, Ltd., priority 2008, published 2014).

How the values were obtained:
Parkinson's disease [1] = settings: three doses tested; time to need for levodopa as primary endpoint; cited from earlier work
[2] = target: T1, Type-B Monoamine Oxidase (MAO-B) (Homo sapiens, UniProt P27338); settings: cited from earlier work
T1 sequence (P27338 1-520): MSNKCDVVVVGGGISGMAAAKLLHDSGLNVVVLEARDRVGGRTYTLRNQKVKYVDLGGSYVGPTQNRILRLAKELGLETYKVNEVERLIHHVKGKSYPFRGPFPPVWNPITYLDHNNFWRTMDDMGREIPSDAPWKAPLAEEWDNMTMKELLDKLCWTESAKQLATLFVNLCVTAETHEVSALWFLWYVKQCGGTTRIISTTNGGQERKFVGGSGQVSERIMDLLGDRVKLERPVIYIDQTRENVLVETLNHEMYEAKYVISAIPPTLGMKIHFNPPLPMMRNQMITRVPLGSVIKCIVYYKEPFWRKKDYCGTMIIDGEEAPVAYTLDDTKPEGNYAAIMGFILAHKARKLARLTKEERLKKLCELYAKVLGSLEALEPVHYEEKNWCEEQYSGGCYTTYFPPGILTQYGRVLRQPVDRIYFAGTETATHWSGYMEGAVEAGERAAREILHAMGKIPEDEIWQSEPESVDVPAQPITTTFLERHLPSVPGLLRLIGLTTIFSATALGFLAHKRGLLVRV

Parkinson's disease [3] = settings: 12 months of treatment and 2 months of drug wash-out; vs placebo; cited from earlier work

SMILES	effect on primary or secondary endpoints (Parkinson's disease [1])	inhibition of Type-B Monoamine Oxidase (MAO-B) [2]	deterioration from baseline in UPDRS motor score (Parkinson's disease [3])
C#CCN(C)CC1=Cc2ccccc2Oc2ccccc21.O=C(O)/C=C\C(=O)O [TCH346]	did not demonstrate a positive effect	did not inhibit	
C#CCN(C)[C@H](C)Cc1ccccc1 [selegiline]			less deterioration from baseline than patients treated with placebo
